One assay has as its system Pseudomonas fluorescens. The experiment in a line: Alternate Minimum Inhibitory Concentrations Test (Table 4), Ps.fl. The note with it: Table 4 alternate test; for MIC: Pseudomonas fluorescens, read-out: MIC Ps.fl. Type of assay: cell-based. Here is the method: The compounds of Examples 1-8, 12-26, 28-33, 36-37, 39-42, 44-109, 111-114, and 116-120 were subjected also to the following alternate biocidal activity test procedures with the results as indicated in Table 4.
The MIC test measures the viability of Pseudomonas fluorescens inoculum in TSB when exposed for 72 hours to varying concentrations of test compound.
A 125 μl aliquot of 10,000 ppm test compound in acetone was added to 4.88 ml of TSB to provide a 250 ppm solution. From this solution, 100 μL was transferred to the first row of two microtiter plate columns. Both replicates and five additional compounds were all serially diluted 1:1 to a final concentration of 0.8 ppm in TSB.
Inoculation was accomplished by diluting a 24 hr Ps fl culture, four mls per 36 mls of phosphate buffer solution. A Dynatech autoinoculator was used to transfer 1.5 μl of this cell suspension to the microtiter plates. The plates were incubated at 30° C. for 3 days before the lowest concentration at which no growth occurs was recorded in the database.

A further assay relates to Piricularia oryzae. The experiment in a line: whole plant or invertebrate. Type of assay: in vivo. The following applies: for pest or weed control at 200 ppm: Pyricularia oryzae, read-out: % Control RB, application rate 200 ppm.
Assay [1] has as its system Pellicularia filamentosa (f. sp. sasiki). The experiment in a line: whole plant or invertebrate. Type of assay: in vivo.
The next assay deals with Phytophthora infestans. The experiment in a line: whole plant or invertebrate. Type of assay: in vivo.
In assay [2] the test system is Pseudoperonospora cubensis. The experiment in a line: whole plant or invertebrate. Type of assay: in vivo. The note with it: for pest or weed control at 200 ppm: Pseudoperonospora cubensis, in Cucumis sativus, 168 h, read-out: % Control CDM.
Assay [3] relates to Erysiphe graminis (f. sp. tritici). The experiment in a line: whole plant or invertebrate. The following applies: for pest or weed control at 200 ppm: Blumeria graminis, read-out: % Control WPM. Type of assay: in vivo.
The subject of assay [4] is Puccinia recondita (f. sp. tritici Races PKB and PLD). The experiment in a line: whole plant or invertebrate. Type of assay: in vivo. The following applies: for pest or weed control at 200 ppm: Puccinia recondita, 240 h, read-out: % Control WLR.
Setting [5] is: 250 ppm to 0.8 ppm in TSB, 72 hours, 30° C.
Where [6] appears, read: Phytophthora infestans, in Solanum lycopersicum, 96 h, read-out: % Control TLB, application rate 200 ppm.
[7] abbreviates: Phytophthora infestans, in Solanum lycopersicum, 96 h, read-out: % Control TLB.

Where two headings read alike, the source gives them in different places. A value given as a limit tells only on which side of the number the result lay.

Take “N-octyl-cis-3-(ferrocenecarbonylthio)acrylamide [Compound 81]”: the “MIC Ps.fl” value in the assay on Pseudomonas fluorescens (setting [5]) was over 250 Ppm. For the same compound, in the assay on Piricularia oryzae (in vivo), the “% Control RB” value stood at 75 % Control. Further, in assay [1] (in vivo), the “% Control RSB” value came to 0 % Control. For the same compound, the “% Control TLB” value in the assay on Phytophthora infestans (in vivo) is listed as 100 % Control. The “% Control CDM” value in assay [2] (in vivo) was 0 % Control. Further, in assay [3] (in vivo), the “% Control WPM” value is recorded as 85 % Control. Also, in assay [4] (in vivo), the “% Control WLR” value was determined as 25 % Control.

In the case of `CCCCCCCCNC(=O)/C=C\SC(=O)c1ccc(OCCCCCCC)cc1` [Compound 45, N-octyl-cis-3-[(4-heptoxybenzoyl)thio]acrylamide], the minimal inhibitory concentration (MIC) (in general, the lowest concentration that inhibits growth of the organism) in the assay on Pseudomonas fluorescens (setting [5]) was over 250 µg/mL. Further, the pest or weed control at 200 ppm is 0% in the assay with Piricularia oryzae; 80% in assay [1] (120 h, read-out: % Control RSB); 0% with Phytophthora infestans (setting [6]); 0% in assay [2]; 0% in assay [3]; 0% in assay [4].

On to `CCCCCCCCNC(=O)/C=C\SC(=O)c1ccc([N+](=O)[O-])cc1C` [Compound 99, N-octyl-cis-3-[(2-methyl-4-nitrobenzoyl)thio]acrylamide], for which, in the assay with Pseudomonas fluorescens (setting [5]), the MIC is over 250 µg/mL. The pest or weed control at 200 ppm amounted to 75% in the assay on Piricularia oryzae; 0% in the assay on Phytophthora infestans (setting [6]); 50% in assay [2]; 50% in assay [3]; 0% in assay [4].

For the compound `CCCCCCCCNC(=O)/C=C\SC(=O)c1ccc(Cl)c(Cl)c1` [Compound 103, N-octyl-cis-3-[(3,4-dichlorobenzoyl)thio]acrylamide], the MIC in the assay on Pseudomonas fluorescens (setting [5]) was over 250 µg/mL. The pest or weed control at 200 ppm was 50% with Piricularia oryzae; 0% in the assay on Phytophthora infestans (setting [6]); 50% in assay [2]; 85% in assay [3]; 0% in assay [4].

Take `CCCCCCCCNC(=O)/C=C\SC(=O)CCCOc1ccccc1` [Compound 120, N-octyl-cis-3-[(4-phenoxybutanoyl)thio]acrylamide]: in the assay with Pseudomonas fluorescens (class symbol), the “MIC Ps.fl (I = inactive)” value is on record as “I”. Moreover, the pest or weed control at 200 ppm in the assay with Piricularia oryzae came to 0%; in assay [2], 90%; in assay [3] it was 0%; in assay [4], 0%. For the same compound, the pest or weed control at 50 ppm in the assay on Phytophthora infestans (setting [7]) came to 80%.

In the case of `CCCCCCCCNC(=O)/C=C\SC(=O)c1cc([N+](=O)[O-])ccc1[N+](=O)[O-]` [Compound 107, N-octyl-cis-3-[(2,5-dinitrobenzoyl)thio]acrylamide], the MIC with Pseudomonas fluorescens (setting [5]) was over 250 µg/mL. Further, the pest or weed control at 200 ppm worked out at 0% in the assay with Piricularia oryzae; 0% in the assay with Phytophthora infestans (setting [6]); 0% in assay [2]; 50% in assay [3]; 0% in assay [4].

In the case of `CCCCCCCCNC(=O)/C=C\SC(=O)c1ccc(Br)o1` [Compound 111, N-octyl-cis-3-[(5-bromo-2-furoyl)thio]acrylamide], the MIC in the assay on Pseudomonas fluorescens (setting [5]) is over 250 µg/mL. Also, the pest or weed control at 200 ppm in the assay with Piricularia oryzae came to 0%; with Phytophthora infestans (setting [7]), 80%; in assay [2], 85%; in assay [3], 0%; in assay [4], 0%.

On to `CCCCCCCCNC(=O)/C=C\SC(=O)C1C=CCC=C1C` (stereo not drawn) [Compound 101, N-octyl-cis-3-[(2-methylcyclohexa-2,5-diene)carbonylthio]acrylamide], for which, in the assay with Pseudomonas fluorescens (setting [5]), the minimal inhibitory concentration (MIC) is over 250 µg/mL. Moreover, the pest or weed control at 200 ppm came to 75% with Piricularia oryzae; 0% in the assay on Phytophthora infestans (setting [6]); 50% in assay [2]; 0% in assay [3]; 0% in assay [4].

The values are drawn from patent US5300672A (priority 1992, dated 1994).
